In the NIST ThermoML archive (doi:10.1016/j.jct.2010.03.022):

Conditions: for viscosity: 101.3 kPa; for viscosity / mass density: Liquid; for surface tension liquid-gas: Ring tensiometer

CCO [ethanol]
Conditions | surface tension liquid-gas [mN/m] | viscosity [mPa·s]
273.15 K | – | 1.832
274.77 K | 23.59 | –
274.87 K | 23.54 | –
278.6 K | – | 1.649
280.56 K | 23.15 | 1.537
281.05 K | 22.95 | –
281.17 K | 23.09 | 1.527
284.25 K | 22.78 | 1.455
288.21 K | 22.7 | 1.338
288.23 K | 22.61 | –
288.65 K | 22.63 | –
293.15 K | 22.36 | 1.203
294.19 K | 22.4 | 1.192
298.15 K | 22.25 | 1.096
298.41 K | 22.07 | 1.088
298.55 K | 22.06 | 1.088
303.15 K | 21.63 | 1.002
303.2 K | 21.66 | 1
308.23 K | 21.33 | 0.914
311.79 K | 21.09 | 0.855
318.99 K | 20.2 | 0.756
321.15 K | – | 0.73
323.15 K | – | 0.715
328.15 K | – | 0.656
333.15 K | – | 0.602
338.16 K | – | 0.571
343.15 K | – | 0.504
346.15 K | – | 0.488

Conditions | mass density [kg/m3]
278.15 K, 100 kPa | 803.3
278.15 K, 2000 kPa | 805.9
278.15 K, 4000 kPa | 807.3
278.15 K, 6000 kPa | 809.2
278.15 K, 8000 kPa | 810.6
278.15 K, 10000 kPa | 812.7
278.15 K, 15000 kPa | 815.8
278.15 K, 20000 kPa | 821
278.15 K, 25000 kPa | 823.4
278.15 K, 30000 kPa | 823.8
278.15 K, 35000 kPa | 825.8
283.15 K, 100 kPa | 799.5
283.15 K, 2000 kPa | 801.7
283.15 K, 4000 kPa | 803
283.15 K, 6000 kPa | 805.1
283.15 K, 8000 kPa | 806.6
283.15 K, 10000 kPa | 808.5
283.15 K, 15000 kPa | 811.8
283.15 K, 20000 kPa | 816.4
283.15 K, 25000 kPa | 818.9
283.15 K, 30000 kPa | 819.9
283.15 K, 35000 kPa | 822.2
288.15 K, 100 kPa | 795.3
288.15 K, 2000 kPa | 797.5
288.15 K, 4000 kPa | 798.8
288.15 K, 6000 kPa | 800.9
288.15 K, 8000 kPa | 802.6
288.15 K, 10000 kPa | 804.2
288.15 K, 15000 kPa | 807.8
288.15 K, 20000 kPa | 811.9
288.15 K, 25000 kPa | 814.5
288.15 K, 30000 kPa | 816
288.15 K, 35000 kPa | 818.6
293.15 K, 100 kPa | 791.2
293.15 K, 2000 kPa | 793.2
293.15 K, 4000 kPa | 794.5
293.15 K, 6000 kPa | 796.7
293.15 K, 8000 kPa | 798.5
293.15 K, 10000 kPa | 800
293.15 K, 15000 kPa | 803.7
293.15 K, 20000 kPa | 807.4
293.15 K, 25000 kPa | 810.2
293.15 K, 30000 kPa | 812.2
293.15 K, 35000 kPa | 814.9
298.15 K, 100 kPa | 785
298.15 K, 2000 kPa | 788.8
298.15 K, 4000 kPa | 790.3
298.15 K, 6000 kPa | 792.5
298.15 K, 8000 kPa | 794.3
298.15 K, 10000 kPa | 795.8
298.15 K, 15000 kPa | 799.7
298.15 K, 20000 kPa | 803.1
298.15 K, 25000 kPa | 806
298.15 K, 30000 kPa | 808.3
298.15 K, 35000 kPa | 811.3
303.15 K, 100 kPa | 781.6
303.15 K, 2000 kPa | 784.4
303.15 K, 4000 kPa | 785.9
303.15 K, 6000 kPa | 788.2
303.15 K, 8000 kPa | 790.2
303.15 K, 10000 kPa | 791.6
303.15 K, 15000 kPa | 795.6
303.15 K, 20000 kPa | 798.8
303.15 K, 25000 kPa | 801.8
303.15 K, 30000 kPa | 804.5
303.15 K, 35000 kPa | 807.6
308.15 K, 100 kPa | 777.9
308.15 K, 2000 kPa | 780
308.15 K, 4000 kPa | 781.6
308.15 K, 6000 kPa | 783.9
308.15 K, 8000 kPa | 785.9
308.15 K, 10000 kPa | 787.3
308.15 K, 15000 kPa | 791.5
308.15 K, 20000 kPa | 794.7
308.15 K, 25000 kPa | 797.8
308.15 K, 30000 kPa | 800.7
308.15 K, 35000 kPa | 803.9
313.15 K, 100 kPa | 774
313.15 K, 2000 kPa | 775.4
313.15 K, 4000 kPa | 777.2
313.15 K, 6000 kPa | 779.5
313.15 K, 8000 kPa | 781.7
313.15 K, 10000 kPa | 783.1
313.15 K, 15000 kPa | 787.4
313.15 K, 20000 kPa | 790.6
313.15 K, 25000 kPa | 793.8
313.15 K, 30000 kPa | 797
313.15 K, 35000 kPa | 800.2
318.15 K, 100 kPa | 769.7
318.15 K, 2000 kPa | 770.8
318.15 K, 4000 kPa | 772.8
318.15 K, 6000 kPa | 775.1
318.15 K, 8000 kPa | 777.3
318.15 K, 10000 kPa | 778.8
318.15 K, 15000 kPa | 783.2
318.15 K, 20000 kPa | 786.5
318.15 K, 25000 kPa | 789.9
318.15 K, 30000 kPa | 793.2
318.15 K, 35000 kPa | 796.5
323.15 K, 100 kPa | 765.2
323.15 K, 2000 kPa | 766.2
323.15 K, 4000 kPa | 768.4
323.15 K, 6000 kPa | 770.7
323.15 K, 8000 kPa | 772.9
323.15 K, 10000 kPa | 774.5
323.15 K, 15000 kPa | 779
323.15 K, 20000 kPa | 782.6
323.15 K, 25000 kPa | 786.1
323.15 K, 30000 kPa | 789.5
323.15 K, 35000 kPa | 792.8
328.15 K, 100 kPa | 760.4
328.15 K, 2000 kPa | 761.5
328.15 K, 4000 kPa | 763.9
328.15 K, 6000 kPa | 766.2
328.15 K, 8000 kPa | 768.5
328.15 K, 10000 kPa | 770.3
328.15 K, 15000 kPa | 774.8
328.15 K, 20000 kPa | 778.7
328.15 K, 25000 kPa | 782.3
328.15 K, 30000 kPa | 785.7
328.15 K, 35000 kPa | 789
333.15 K, 100 kPa | 755.4
333.15 K, 2000 kPa | 756.7
333.15 K, 4000 kPa | 759.4
333.15 K, 6000 kPa | 761.6
333.15 K, 8000 kPa | 764
333.15 K, 10000 kPa | 766
333.15 K, 15000 kPa | 770.6
333.15 K, 20000 kPa | 774.9
333.15 K, 25000 kPa | 778.6
333.15 K, 30000 kPa | 782
333.15 K, 35000 kPa | 785.2
338.15 K, 100 kPa | 750
338.15 K, 2000 kPa | 751.8
338.15 K, 4000 kPa | 754.9
338.15 K, 6000 kPa | 757
338.15 K, 8000 kPa | 759.5
338.15 K, 10000 kPa | 761.7
338.15 K, 15000 kPa | 766.3
338.15 K, 20000 kPa | 771.2
338.15 K, 25000 kPa | 775
338.15 K, 30000 kPa | 778.3
338.15 K, 35000 kPa | 781.4
343.15 K, 100 kPa | 744.3
343.15 K, 2000 kPa | 746.8
343.15 K, 4000 kPa | 750.3
343.15 K, 6000 kPa | 752.3
343.15 K, 8000 kPa | 754.9
343.15 K, 10000 kPa | 757.3
343.15 K, 15000 kPa | 762
343.15 K, 20000 kPa | 767.6
343.15 K, 25000 kPa | 771.5
343.15 K, 30000 kPa | 774.6
343.15 K, 35000 kPa | 777.6
348.15 K, 100 kPa | 738.4
348.15 K, 2000 kPa | 741.8
348.15 K, 4000 kPa | 745.6
348.15 K, 6000 kPa | 747.6
348.15 K, 8000 kPa | 750.2
348.15 K, 10000 kPa | 753
348.15 K, 15000 kPa | 757.7
348.15 K, 20000 kPa | 764
348.15 K, 25000 kPa | 768
348.15 K, 30000 kPa | 770.9
348.15 K, 35000 kPa | 773.7
353.15 K, 2000 kPa | 736.7
353.15 K, 4000 kPa | 741
353.15 K, 6000 kPa | 742.8
353.15 K, 8000 kPa | 745.5
353.15 K, 10000 kPa | 748.6
353.15 K, 15000 kPa | 753.3
353.15 K, 20000 kPa | 760.5
353.15 K, 25000 kPa | 764.6
353.15 K, 30000 kPa | 767.2
353.15 K, 35000 kPa | 769.9
